# Measurements published in patent US9572788B2, “Cell permeable inhibitors of anaphase promoting complex” (President and Fellows of Harvard College, priority 2014, dated 2017).
# Columns and labels:
# Format in all cases: cell-based, human
# hTERT-RPE1 H2B-GFP cells = assay: Live imaging of mitotic duration in hTERT-RPE1 H2B-GFP cells
# Method: FIG. 18A is a graph and table showing that proTAME induces a mitotic delay in hTERT-RPE1 H2B-GFP cells. Asynchronous hTERT-RPE1 H2B-GFP cells were treated with 0.06% DMSO, 6 μM proTAME or 12 μM proAAME. Cells were imaged at 12 min interval. Cumulative frequency curves of mitotic duration and cell fate distribution are shown.
# The imaging plate was mounted onto a motorized stage (Prior ProScan II) on a Nikon TE2000E PFS inverted microscope fitted with an incubation chamber maintained at 37° C. and supplied with 5% CO2. A 20× Plan Apo 0.75 NA or 40× Plan Fluor 0.75 NA objective lens was used as indicated and images were collected with 2×2 binning. DIC or GFP fluorescent images were taken every 12 min (unless otherwise specified) for 36 h with a Hamamatsu ORCA cooled CCD camera and Nikon Elements Software. TIFF files of each image were exported from Elements and used to build stacks and Quicktime movies with Metamorph imaging software (Molecular Devices). For manual analysis, mitotic duration is counted as the time between the first frame of chromosome condensation and the frame of chromosome segregation (anaphase) or decondensation (mitotic exit in the presence of nocodazole) or cell death (chromosomes shrinking to a small bright dot).
# RPE1-H2B-GFP cells = assay: Fluorescence live cell imaging with survival (Cox) analysis, RPE1; conditions: proTAME 6 μM; for % rate of mitotic exit: relative to DMSO control, Cox model, apcin/apcin-M 25 μM; for Median mitotic duration: apcin or apcin-M 25 μM
# Method: RPE1-H2B-GFP or U2OS-H2B-GFP cells were plated in 24-well glass-bottom plates 18-24 hours prior to siRNA transfection using RNAiMax (Invitrogen). After treatment with compound(s), DIC and GFP images were captured at 6-minute intervals for 45 hours. Movies were manually analyzed using Nikon Elements software or Image J.
# RPE1-H2B-GFP or U2OS-H2B-GFP cells were plated in 24-well glass-bottom plates (Greiner BioOne, 662892) 18-24 hours prior to siRNA transfection using RNAiMax (Invitrogen). Plates were inserted into a covered chamber supplied with humidified 5% CO2 and mounted onto a motorized microscope stage (Prior Scientific). DIC and FITC images were captured at 6 minute intervals for 45 hours using a Nikon Ti inverted fluorescence microscope fitted with a 37° C. enclosed incubation chamber and using a 20× Plan Apo 0.75 NA objective lens. A Hamamatsu ORCA cooled CCD camera collected the images with 2×2 binning using Nikon Elements software (version 3.0). Movies were manually analyzed using Nikon Elements software or ImageJ. Mitotic duration was defined as the time from nuclear envelope breakdown until anaphase, in the case of normal mitosis, or until exit from prolonged mitosis as indicated by cytoplasmic blebbing accompanied by changes in chromatin as detected by H2B-GFP.
# In order to detect differences in mitotic duration among cells in the live-cell imaging screen, a stratified Cox proportional hazards model (Cox, D. R. Regression models and life tables. J Royal Statistics Soc B34, 187-220, (1972)) was fit to censored mitotic duration times (where cells that are not observed exiting mitosis or dying in mitosis are censored at the last known time in mitosis). The Cox proportional hazards model is a semiparameteric approach to modeling time-to-event data, in which covariates are assumed to have constant proportional effects over time relative to a baseline hazard function that can take any form. In this case, stratification on “person” (the individual who analyzed the movie) and “date” (the date the assay was run) allow the baseline hazard function to differ across experimental blocks, but assume a fixed effect of treatment across experimental blocks. The model is thus: hi(t|Z=j)=hj(t)exp(β1×apcini+β2×apcinMi+β3×proTAMEi+β4×proTAMEi:apcinMi+β5×proTAMEi:apcini), j=1 . . . 4 where hi(t) is the hazard function of cell i at time t, hj(t) is the baseline hazard for strata j (with 4 levels, one for each person and date combination), apcini, proTAMEi, and apcinMi are indicator variables for presence or absence of the compounds apcin, proTAME, and apcin-M, respectively in cell i, proTAMEi:apcini is an indicator variable that is 1 if both proTAME and apcin are present in cell i, and 0 otherwise, and proTAMEi:apcinMi is a similar indicator variable for proTAME+apcin-M. In this model, […] represent the effects of apcin, apcin-M, and proTAME alone, while β4 and β5 represent the additional non-additive effect of the compounds beyond what is predicted from the combination of effects of the two compounds alone. This model was fit separately to cells treated with control siRNA or Mad2 siRNA. All statistical analysis was carried out in R 3.0.0 using the functions available as part of the survival package.
# In this model, the β coefficients represent the log hazard ratios for exiting mitosis between treated and untreated cells. However, for ease of interpretation the β coefficients are exponentiated to convert them to normal hazard ratios, and then multiplied by 100 to convert to percentages relative to DMSO. These hazard ratios, which are referred to as mitotic exit rate, represent the relative probability that a treated cell in mitosis at time t will exit mitosis in the next time interval compared to an untreated cell.
# For ease of interpretation, the treatment effects are presented relative to DMSO for all individual compounds and compound combinations. […]
# U2OS-H2B-GFP cells = assay: Fluorescence live cell imaging with survival (Cox) analysis, U2OS; conditions: proTAME 12 μM
# Method: Mitotic duration and cell fate were determined by manual inspection of the movies and plotted as Kaplan-Meier curves. The hatch marks on the Kaplan-Meier curved indicate mitotic duration endpoints of censored cells. Includes the combined results of five independent experiments. […] Pairwise comparison between proTAME and proTAME+apcin-M tested using a Cox proportional hazards model stratified by date, using data from only the experimental blocks in which both proTAME and proTAME+apcin were tested.
# Movies were manually analyzed using Nikon Elements software or Image J.
# Plates were inserted into a covered chamber supplied with humidified 5% CO2 and mounted onto a motorized microscope stage (Prior Scientific). […] A Hamamatsu ORCA cooled CCD camera collected the images with 2×2 binning using Nikon Elements software (version 3.0). Movies were manually analyzed using Nikon Elements software or ImageJ. Mitotic duration was defined as the time from nuclear envelope breakdown until anaphase, in the case of normal mitosis, or until exit from prolonged mitosis as indicated by cytoplasmic blebbing accompanied by changes in chromatin as detected by H2B-GFP.
# The Cox proportional hazards model is a semiparameteric approach to modeling time-to-event data, in which covariates are assumed to have constant proportional effects over time relative to a baseline hazard function that can take any form. In this case, stratification on “person” (the individual who analyzed the movie) and “date” (the date the assay was run) allow the baseline hazard function to differ across experimental blocks, but assume a fixed effect of treatment across experimental blocks. The model is thus: hi(t|Z=j)=hj(t)exp(β1×apcini+β2×apcinMi+β3×proTAMEi+β4×proTAMEi:apcinMi+β5×proTAMEi:apcini), j=1 . . . […] This model was fit separately to cells treated with control siRNA or Mad2 siRNA. All statistical analysis was carried out in R 3.0.0 using the functions available as part of the survival package.
# [1] = Fig S4A, asynchronous hTERT-RPE1 cells, proAAME 12 μM, proTAME 6 μM
structure (smiles),measurement,setting,value
COC(=O)[C@H](CCCN/C(=N\C(=O)OCOC(=O)Cc1ccccc1)NC(=O)OCOC(=O)Cc1ccccc1)NS(=O)(=O)c1ccc(C)cc1 [proTAME],Average mitotic duration,hTERT-RPE1 H2B-GFP cells; [1],819.0 min
same,Median mitotic duration,hTERT-RPE1 H2B-GFP cells; [1],522 min
same,Median mitotic duration,"hTERT-RPE1 H2B-GFP cells; asynchronous hTERT-RPE1, 6 μM",over 8 h
same,% rate of mitotic exit,RPE1-H2B-GFP cells; Mad2 siRNA,0.22%
same,Median mitotic duration,"RPE1-H2B-GFP cells; Table 3, control siRNA",120
same,Median mitotic duration,"RPE1-H2B-GFP cells; Table 3, mad2 siRNA",114
same,% rate of mitotic exit,RPE1-H2B-GFP cells; control siRNA,2.32%
same,Median mitotic duration,"U2OS-H2B-GFP cells; Table 7, apcin or apcin-M 25 μM",180
same,% rate of mitotic exit,"U2OS-H2B-GFP cells; relative to DMSO control, Cox model, apcin/apcin-M 25 μM",3.63%
